The source of these data is paper PMC10060639, “Prediction and bioactivity of small-molecule antimicrobial peptides from Protaetia brevitarsis Lewis larvae” (Frontiers in Microbiology, 2023).

Where “and” joins values, the source holds several entries; their conditions need not be identical. Equal values may be shown once. Ends that are not written are not given here. Bounds are passed on as bounds.

The subject of series [1] is E. coli. Kind of series: agar punch method, inhibition circle. In kind it is cell-based, Escherichia coli. Particulars: 6 mm hole, 55 μL of 1 mg/mL, NA, 37°C, 16–18 h, mean ± SD, three replicates, + control given per plate group. Here is the method: (§1) Staphylococcus aureus CMCC(B) 26003, B. thuringiensis, E. coli, and P. aeruginosa CMCC(B)10104 were cultured in NA medium and C. albicans CMCC(F) 98001 was cultured in SDA medium. They were incubated in a constant-temperature (bacteria: 37°C; fungi: 28°C) incubator for 16–20 h. Thereafter, single colonies were picked and incubated in 50 mL MHB at 160 rpm/min at the optimal growth temperature (bacteria: 37°C; fungi: 28°C). Microbial suspensions of 1 × 10^6 CFU/mL were then prepared ([Chen et al., 2016]).
(§2) 100 μL of 1 × 10^6 CFU/mL microbial suspension (E. coli, P. aeruginosa CMCC(B)10104, B. thuringiensis, S. aureus CMCC(B) 26003, or C. albicans CMCC(F) 98001) was evenly applied to dishes containing 20 mL NA (bacteria) or SDA (fungi). After the microbial solution solidified, six holes per dish were punched with a sterile pipette tip of 6 mm in diameter, with each hole spaced >20 mm apart and > 10 mm apart from the edge of the dish. […] Next, 55 μL of 1 mg/mL control/treatment was added to each hole and incubated in a constant-temperature (bacteria: 37°C; fungi: 28°C) incubator for 16–18 h ([Chen et al., 2016]; [Gong et al., 2022]), with three replicates for each treatment group. The diameter of the inhibition circle was measured using ImageJ software (National Institutes of Health, United States) in order to preliminarily determine whether the candidate peptides had inhibitory activity.

The subject of series [2] is mouse RAW 264.7 macrophages. Kind of series: cytotoxicity, MTT assay. In kind it is cell-based. Conditions: at 256 μg/mL, 24 h incubation, absorbance 570 nm, n = 3. Here is the method: Followed the removing of the MTT, dimethyl sulfoxide (DMSO) (150 μL/well) was added and the absorbance was measured at 570 nm. Untreated cells were used as a control. […] The cytotoxicity detection was repeated in triplicate.

Series [3] has as its system C. albicans CMCC(F) 98001. As to the kind of experiment: agar punch method, inhibition circle. In kind it is cell-based, Candida albicans. Particulars: 6 mm hole, 55 μL of 1 mg/mL, SDA, 28°C, 16–18 h, mean ± SD, three replicates, + control given per plate group. Here is the method: as §1, §2
Series [4] has as its system B. thuringiensis. As to the kind of experiment: agar punch method, inhibition circle. The format is cell-based, Bacillus thuringiensis. Conditions: 6 mm hole, 55 μL of 1 mg/mL, NA, 37°C (Fig. S3C: 30°C), 16–18 h, mean ± SD, three replicates, + control given per plate group. Here is the method:
as §1, §2

Series [5] has as its system P. aeruginosa CMCC(B)10104. As to the kind of experiment: agar punch method, inhibition circle. The format is cell-based, Pseudomonas aeruginosa. Particulars: 6 mm hole, 55 μL of 1 mg/mL, NA, 37°C, 16–18 h, mean ± SD, three replicates, + control given per plate group, listed as +. Here is the method: as §1, §2
Series [6] deals with S. aureus CMCC(B) 26003. Kind of series: dynamic antimicrobial analysis (OD600 growth over 10 h). The format is cell-based, Staphylococcus aureus. Conditions: 1/4× MIC, OD600 every hour for 10 h, 37°C, n = 3. Here is the method:
(§3) Therefore, the follow-up experiments involved these two bacteria, along with the three AMPs with the best antimicrobial effects (FD10, FD12, and FD15). The dynamic antimicrobial effects were analyzed by measuring the effects of the AMPs on bacterial growth over 10 h. First, 100 μL microbial solution (1.0 × 10^6 CFU/mL) was added to the wells of a 96-well culture plate, and then 100 μL AMP (at 1× and 1/4× MIC) was added and the mixtures were cultured at 37°C ([Mishra et al., 2013]; [Memariani et al., 2016]). 100 μL MHB with 100 μL microbial solution was used as the control group. The optical density at 600 nm (OD600) was measured every hour for 10 h using a microplate reader ([Hou et al., 2007]). The experiment was conducted in triplicate.

Series [7] relates to E. coli. The description is as above. In kind it is cell-based, Escherichia coli. Particulars: 1/4× MIC, OD600 every hour for 10 h, 37°C, n = 3. Here is the method: as §3
The subject of series [8] is S. aureus CMCC(B) 26003. Kind of series: agar punch method, inhibition circle. The format is cell-based, Staphylococcus aureus. Conditions: 6 mm hole, 55 μL of 1 mg/mL, NA, 37°C, 16–18 h, mean ± SD, three replicates, + control given per plate group. Here is the method:
as §1, §2

Series [9] has as its system E. coli. In kind it is cell-based, Escherichia coli. Here is the method: as §1
(§4) The MIC values of five candidate peptides (FD4, FD10, FD12, FD14, and FD15), which were selected based on physicochemical properties and antimicrobial effects (determined by the agar punch method), were evaluated using a micro-broth dilution method ([Zhou and Zhou, 2018]). Serial two-fold dilutions of the candidate peptides were prepared in 96-well plates containing the same microbial inoculum (E. coli, P. aeruginosa CMCC(B)10104, B. thuringiensis, S. aureus CMCC(B) 26003, or C. albicans CMCC(F) 98001). The plates were incubated (bacteria: 37°C; fungi: 28°C) for 16–18 h. Ampicillin was used as the positive control. The MIC was defined as the lowest peptide concentration where no visible growth occurred ([Diao et al., 2014]). The experiment was conducted in triplicate.

Series [10] has as its system P. aeruginosa CMCC(B)10104. The format is cell-based, Pseudomonas aeruginosa. Particulars: CMCC(B)10104. Here is the method:
as §1, §4

Series [11] has as its system B. thuringiensis. The format is cell-based, Bacillus thuringiensis. Here is the method:
as §1, §4

For series [12], the system named is S. aureus CMCC(B) 26003. In kind it is cell-based, Staphylococcus aureus. Conditions: CMCC(B) 26003. Here is the method:
as §1, §4

Take `CC1(C)S[C@@H]2[C@H](NC(=O)[C@H](N)c3ccccc3)C(=O)N2[C@H]1C(=O)O` [ampicillin, reference compound]: the “Inhibition circle diameter (mm) E. coli” value in [1] was 29.37 mm; in [1] (listed as +), 27.03 ± 0.47 mm and 27.84 ± 0.30 mm and 30.50 ± 0.21 mm and 29.37 ± 0.31 mm. In addition, the “survival rate of mouse RAW 264.7 macrophages” value in series [2] amounted to 84.90%. In series [3], the “Inhibition circle diameter (mm) C. albicans CMCC(F) 98001” value is 16.16 ± 0.51 mm and 17.74 ± 0.47 mm and 17.80 ± 0.25 mm and 19.69 ± 0.53 mm. The “Inhibition circle diameter (mm) B. thuringiensis” value in series [4] is 17.95 ± 0.36 mm and 13.99 ± 0.61 mm and 17.47 ± 0.19 mm and 15.97 ± 0.49 mm. In addition, in series [5], the “Inhibition circle diameter (mm) P. aeruginosa CMCC(B)10104” value is 15.10 ± 0.43 mm and 16.52 ± 0.55 mm and 16.99 ± 0.39 mm and 14.48 ± 0.29 mm. Moreover, the “time after which S. aureus CMCC(B) 26003 growth began” value in [6] is reported as “around 2 h”. In [7], the “time after which E. coli growth began” value is > 1 h. Moreover, the “Inhibition circle diameter (mm) S. aureus CMCC(B) 26003” value in series [8] is 19.98 mm; in series [8] (listed as +) it was 14.35 ± 0.49 mm and 15.58 ± 0.58 mm and 16.02 ± 0.34 mm and 19.98 ± 0.42 mm.

ANWKKVIR [FD14]: in series [9], the “MIC (μg/mL) E. coli” value worked out at 256 µg/mL. For the same compound, the “MIC (μg/mL) P. aeruginosa CMCC(B)10104” value in [10] turned out to be 256 µg/mL. Also, the “MIC (μg/mL) B. thuringiensis” value in series [11] was 256 µg/mL.

With IVHLLTKMTK [FD4], in [12], the “MIC (μg/mL) S. aureus CMCC(B) 26003” value came out at 256 µg/mL.
